{"source": "patent US4265901A", "about": "“2-Oxybenzimidazoline compounds” (priority 1979, dated 1981)", "key": {"guinea pigs": {"tested_on": "guinea pigs", "experiment": "Mortality of guinea pigs after intraperitoneal dosing", "format": "in vivo, guinea pig", "conditions": "for death of guinea pigs: two animals", "description": "Representative compounds of the present invention were evaluated against larvae of blowfly (Phormia regina) and against adult housefly (Musca domestica). In these evaluations, the candidate compound was administered to each of two male guinea pigs weighing from about 400 grams to about 1000 grams. Administration was via the intraperitoneal route, the compound having been formulated in sesame oil. At twenty-four hours following administration of the compound, blood was withdrawn from the guinea pigs. The serum portion was isolated and blowfly larvae and adult houseflies were fed on the serum. For the blowfly assay, 10 ml. of serum were placed in a test tube with a wick onto which 50 blowfly larvae were placed. The covered test tube was incubated at 27° C. for 24 hours, at which time efficacy of the candidate compound was determined as the percent mortality of the blowfly larvae, adjusted by normal mortality in a control, and reported according to the following rating scale: […]"}, "blowfly larvae [1]": {"tested_on": "blowfly larvae", "experiment": "Blowfly larvae fed on serum of dosed guinea pigs", "format": "in vivo, Phormia regina", "conditions": "guinea pig, serum at 24 hours", "description": "(§1) Representative compounds of the present invention were evaluated against larvae of blowfly (Phormia regina) and against adult housefly (Musca domestica). In these evaluations, the candidate compound was administered to each of two male guinea pigs weighing from about 400 grams to about 1000 grams. Administration was via the intraperitoneal route, the compound having been formulated in sesame oil. At twenty-four hours following administration of the compound, blood was withdrawn from the guinea pigs. The serum portion was isolated and blowfly larvae and adult houseflies were fed on the serum. For the blowfly assay, 10 ml. of serum were placed in a test tube with a wick onto which 50 blowfly larvae were placed. The covered test tube was incubated at 27° C. for 24 hours, at which time efficacy of the candidate compound was determined as the percent mortality of the blowfly larvae, adjusted by normal mortality in a control, and reported according to the following rating scale:\n(§2) Percent mortality was determined separately for each guinea pig."}, "adult housefly [2]": {"tested_on": "adult housefly", "experiment": "Adult houseflies fed on serum of dosed guinea pigs", "format": "in vivo, Musca domestica", "conditions": "guinea pig, serum at 24 hours", "description": "as §1, §2\n(§3) For the adult housefly test, 10 ml. of serum were employed to saturate a wick which was placed in a petri dish. Twenty-five chilled houseflies were placed in the dish which was then incubated for 24 hours at 27° C. and 50% relative humidity. After the end of the twenty-four hours, the efficacy of the candidate compound was determined as the percent mortality of housefly, adjusted as for blowfly by normal mortality in a control and reported according to the same scale as above."}, "[3]": {"conditions": "CRC Handbook of Chemistry and Physics; cited from earlier work"}, "calf": {"tested_on": "calf", "experiment": "Tolerability in calves (Example 19)", "format": "in vivo", "description": "The compound of Example 3, 2-hydroxy-2,6-bis(trifluoromethyl)-4-nitrobenzimidazoline, sodium salt was evaluated as an ectoparasiticide when administered as pellets implanted in the ear of a calf numbered animal 106. The compound was formulated neat, in tablets about 1/8\" thick. A total of 14 pellets was inserted into the left ear of a 215-kilogram calf, to supply a dose of about 5 mg./kg. […] Two other calves received intramuscular injections of aqueous solutions of 2-hydroxy-2,6-bis(trifluoromethyl)-4-nitrobenzimidazoline, sodium salt, to provide 5 or 7.5 mg./kg. of animal body weight. (animals 119 and 121 respectively). […] A control animal was also maintained throughout the test period."}, "blowfly larvae [4]": {"tested_on": "blowfly larvae", "experiment": "Efficacy against blowfly larvae, calves subcutaneous pellets (Example 20)", "format": "in vivo", "conditions": "Phormia regina, sc, test day per line", "description": "as §1\nThe compound of Example 2, 2-hydroxy-2-(1,1,2,2-tetrafluoroethyl)-4-nitro-6-(trifluoromethyl)benzimidazoline sodium salt, was formulated neat into tablets, each containing about 85 mg. of compound. […]\n(§4) As described in preceding examples, blood samples were withdrawn and analyzed for the concentration of the compound in the blood and percent efficacy against adult housefly and blowfly larvae."}, "adult housefly [5]": {"tested_on": "adult housefly", "experiment": "Efficacy against adult housefly, calves subcutaneous pellets (Example 20)", "format": "in vivo, Musca domestica", "conditions": "Musca domestica, sc, test day per line", "description": "as §3\nThe compound of Example 2, 2-hydroxy-2-(1,1,2,2-tetrafluoroethyl)-4-nitro-6-(trifluoromethyl)benzimidazoline sodium salt, was formulated neat into tablets, each containing about 85 mg. of compound.\nThese pellets were implanted in the right shoulder area of two calves, weighing 400 and 373 kilograms respectively, to supply a dose of about 5 mg./kg. (animals #651 and 1511, respectively). Another calf (animal #656) was maintained as a control and two additional calves weighing 336 and 350 kilograms (animals #654 and 655, respectively) received pellets of 2-(1,1,2,2-tetrafluoroethyl)-4-nitro-6-(trifluoromethyl)benzimidazole, to supply a dose of about 5 mg./kg. of compound.\nas §4"}, "[6]": {"conditions": "calf 654, pellets about 5 mg./kg."}, "[7]": {"conditions": "calf 655, pellets about 5 mg./kg."}}, "note": "Structures can show the parent of a compound that is named as a salt.", "data": [{"compound": "O=[N+]([O-])c1cc(C(F)(F)F)cc2c1NC(O)(C(F)(F)C(F)F)N2", "note": "(centres unmarked) [Example 6, 2-Hydroxy-2-(1,1,2,2-Tetrafluoroethyl)-4-Nitro-6-(Trifluoromethyl)Benzimidazoline, Calcium Salt]", "values": [{"measurement": "death of guinea pig", "setting": "guinea pigs; 5 mg./kg. i.p., one of two animals", "result": "Guinea pig died"}, {"measurement": "Efficacy Rating, Blowfly Larvae", "setting": "blowfly larvae [1]; 5 mg./kg. i.p.", "result": "5 (100% dead)"}, {"measurement": "Efficacy Rating, Blowfly Larvae", "setting": "blowfly larvae [1]; 10 mg./kg. i.p., Calcium Salt", "result": "5 (100% dead)"}, {"measurement": "Efficacy Rating, Adult Housefly", "setting": "adult housefly [2]; 5 mg./kg. i.p.", "result": "5 (100% dead)"}, {"measurement": "Efficacy Rating, Adult Housefly", "setting": "adult housefly [2]; 10 mg./kg. i.p., Calcium Salt", "result": "5 (100% dead)"}]}, {"compound": "O=[N+]([O-])c1cc(C(F)(F)F)cc2c1NC(O)(C(F)(F)C(F)F)N2", "note": "(centres unmarked) [Example 8, 2-Hydroxy-2-(1,1,2,2-Tetrafluoroethyl)-4-Nitro-6-(Trifluoromethyl)Benzimidazoline, Lithium Salt]", "values": [{"measurement": "death of guinea pigs", "setting": "guinea pigs; 20 mg./kg. i.p.", "result": "Both guinea pigs died"}, {"measurement": "Efficacy Rating, Blowfly Larvae", "setting": "blowfly larvae [1]; 5 mg./kg. i.p.", "result": "5 (100% dead)"}, {"measurement": "Efficacy Rating, Adult Housefly", "setting": "adult housefly [2]; 5 mg./kg. i.p.", "result": "5 (100% dead)"}]}, {"compound": "CC(C)OC1(C(F)(F)C(F)F)Nc2cc(C(F)(F)F)cc([N+](=O)[O-])c2N1", "note": "(centres unmarked) [Example 4, 2-Isopropoxy-2-(1,1,2,2-Tetrafluoroethyl)-4-Nitro-6-(Trifluoromethyl)Benzimidazoline, Potassium Salt]", "values": [{"measurement": "death of guinea pigs", "setting": "guinea pigs; 10 mg./kg. i.p.", "result": "Both guinea pigs died"}, {"measurement": "Efficacy Rating, Blowfly Larvae", "setting": "blowfly larvae [1]; 5 mg./kg. i.p.", "result": "5 (100% dead)"}, {"measurement": "Efficacy Rating, Adult Housefly", "setting": "adult housefly [2]; 5 mg./kg. i.p.", "result": "5 (100% dead)"}]}, {"compound": "N", "note": "[Ammonia, ammonia]", "values": [{"measurement": "Kb", "setting": "[3]", "result": "1.79×10^-5"}]}, {"compound": "O=[N+]([O-])c1cc(C(F)(F)F)cc2c1NC(O)(C(F)(F)C(F)F)N2", "note": "(centres unmarked) [Example 7, 2-Hydroxy-2-(1,1,2,2-Tetrafluoroethyl)-4-Nitro-6-(Trifluoromethyl)Benzimidazoline, Silver Salt]", "values": [{"measurement": "death of guinea pigs", "setting": "guinea pigs; 25 mg./kg. i.p.", "result": "guinea pigs died"}, {"measurement": "death of guinea pigs", "setting": "guinea pigs; 50 mg./kg. i.p.", "result": "guinea pigs died"}]}, {"compound": "O=[N+]([O-])c1cc(C(F)(F)F)cc2c1NC(O)(C(F)(F)F)N2", "note": "(centres unmarked) [Example 3, 2-Hydroxy-2,6-Bis(Trifluoromethyl)-4-Nitrobenzimidazoline, Sodium Salt, Monohydrate]", "values": [{"measurement": "swelling post-insertion", "setting": "calf; calf 106, 14 ear pellets, about 5 mg./kg., 6 hours and 1 day", "result": "Some swelling was noted"}, {"measurement": "death of calf", "setting": "calf; calf 121, 7.5 mg./kg. intramuscular", "result": "found dead on day 2"}]}, {"compound": "O=[N+]([O-])c1cc(C(F)(F)F)cc2nc(C(F)(F)C(F)F)[nH]c12", "note": "[2-(1,1,2,2-tetrafluoroethyl)-4-nitro-6-(trifluoromethyl)benzimidazole, reference compound]", "values": [{"measurement": "Emax at 5 mg/kg", "setting": "blowfly larvae [4]; [6]", "result": 100, "unit": "%"}, {"measurement": "Emax at 5 mg/kg", "setting": "blowfly larvae [4]; [7]", "result": 100, "unit": "%"}, {"measurement": "Emax at 5 mg/kg", "setting": "adult housefly [5]; [6]", "result": 100, "unit": "%"}, {"measurement": "Emax at 5 mg/kg", "setting": "adult housefly [5]; [7]", "result": 100, "unit": "%"}]}]}
